Reference: patent US9688989B2, “H4 receptor inhibitors for treating tinnitus” (SENSORION, priority 2012, dated 2017)

How the values were obtained:
[1] = tested on: tinnitus induced by sodium salicylate or noise exposure; test: Gap-Prepulse Inhibition of Acoustic Startle (GPIAS) behavioral model of tinnitus; assay type: in vivo, adult rats; conditions: rats, single i.p. administration, versus pre-treatment or vehicle
Experimental: The aim of these in vivo tests is to measure the efficacy of H4R antagonists to decrease (transient and permanent) tinnitus symptoms induced either by sodium salicylate or by high level noise exposure. Evaluation of efficacy is performed in adult rats using the tinnitus test developed by Turner et al. 2006: the Gap-Prepulse Inhibition of Acoustic Startle (GPIAS) behavioral model. This model uses a gap in a constant acoustic background as a pre-stimulus that reduces the acoustic startle reflex amplitude. Rats perceiving tinnitus in a specific frequency have decreased detection of gap embedded in bands similar to the tinnitus frequency. Reduction of the gating efficiency of the gap produces a larger acoustic startle (reduced GPIAS). The level of GPIAS is measured in baseline condition in a cohort of 6 to 8 adult rats. Tinnitus is induced by an i.p administration of sodium salicylate (250 mg/kg) and GPIAS is measured at […] post-induction to measure the reduction in GPIAS (attesting presence of tinnitus). Rats are treated with H4R antagonists (single i.p. administration) or with the vehicle the same day and GPIAS is measured at different time points according to the PK profile of the compounds Alternatively, tinnitus is induced by a unilateral exposure to a 12 kHz narrow band noise presented at 120-126 dB SPL (the contralateral ear is protected with an ear plug) for 2h. […]

[2] = tested on: spiral ganglion neurons (SGNs); test: Whole-cell current-clamp recordings of step-evoked action potentials in dissociated spiral ganglion neurons; assay type: cell-based, Wistar rats; conditions: for inhibition at 0.1 µM / inhibition at 100 µM: Rattus norvegicus, Neuron, read-out: inhibition of frequency of A.P firing; for inhibition at 0.1 µM / resting membrane potential, difference versus control: 100 nM; for amplitude of the first spike / frequency of spikes and amplitude of the first spike: transient spikers SGNs; for inhibition at 100 µM / amplitude of the first spike: 100 μM; for frequency of spikes and amplitude of the first spike: all concentration tested
Experimental: The head of 5-8 days old Wistar rats (CERJ, Le Genest, Berthevin, France) was hemi-sectioned aseptically and the cochlea dissected from the temporal bone. In L15 (Leibovitz) medium (Gibco) medium, the cochlear bone was gently removed using fine forceps to isolate the sensorineural tissue. The spiral ganglion was separated from the organ of Corti just before the habenula perforata, and enzymatically (collagenase 0.75 mg·mL^−1, dispase 1 mg·mL^−1 and DNAse 0.75 mg·mL^−1) dissociated for 15 min at 25° C. After washing thoroughly with a Tyrode's solution (Sigma), a transfer pipette was used to gently dissociate the ganglion neurons in culture medium (DMEM/F-12 medium 1:1, 2% N2 nutrient, 28 mM Glc, 1.5 mM Gln, 15 mM HEPES, 2 μM AraC, 10 ng mL-1 BDNF and 1% penicillin/streptomycin). The spiral ganglion neurons were plated onto culture dishes previously coated with 10 ug·mL-1 laminin (Sigma). These low density cultures were maintained at 37° C. in 5% CO2 for 3 to 5 days prior whole cell patch-clamp experiments.
Efficacy of H4R antagonist has been tested using two patch clamp technics: whole-cell current-clamp recordings with dissociated spiral ganglion neurons (SGNs) and loose-patch recordings for SGNs in semi-intact cochlea preparations. For these experiments postnatal day (P) 10-14 Wistar rats were used at DIV2-5.
All experiments were performed using an Axopatch 200B amplifier. Traces were low-pass filtered at 10-20 kHz, and digitized at 100 kHz with a Digidata 1440A board. Data were stored with PClamp10.2 software (Axon Instruments; Molecular Devices Corp., USA) and were analyzed off-line using Clampfit 10.2 (Molecular Devices) and Origin 8 (OriginLab) softwares.
The recording solution contained (in mM): NaCl 135, HEPES 10, glucose 10, MgCl2 1, KCl 5, and CaCl2 2.5, (pH 7.35). For whole-cell patch clamp recordings, recording glass pipettes (4-6 MΩ) were coated with Wax to reduce pipette capacitance and were filled with (in mM): KCl 135, HEPES 10, glucose 10, NaCl 5, EGTA 5, Mg-ATP 3, GTP-Na 1, pH 7.35. For these solutions a minor 3.7 mV liquid junction potential could be measured but membrane voltages were not corrected for it. The osmolarity of all solutions was adjusted to 300 mOsm/L. The control and test solutions were applied using a multiple capillary perfusion system (flow rate˜500 μl/min). After each application of the tested drug, the cells were washed with control buffer.
Recordings were performed at room temperature (RT; 22-25° C.). In dissociated neurons, a 150-200 pA DC square current (1 s duration) was applied every 6 s in order to elicit trains of action potentials. The pharmacological tests were conducted only when recordings presented the following criteria: series resistance (<10 MΩ on average) no more than 3 times the pipette resistance, stable resting membrane potential (R.M.P) negative to −40 mV, overshooting action potentials (magnitude >60 mV for the first action potential), stable firing for up to a minute in control condition.
Two concentrations have been tested: 100 μM and 100 nM.
Typically, in dissociated SGNs, (FIG. 2A1) small depolarizing current steps (0.1 nA-0.4 nA) evoked two types of action potential discharge: transient (no more than 1-2 spikes-rapidly adapting neurons) and sustained firing (number of spikes increasing linearly above threshold-slowly adapting neurons) (FIG. 2A2). Transient spikers SGNs represented the majority of neurons in our cell cultures (80% versus 20% of sustained spikers neurons).

[3] = tested on: spiral ganglion neurons (SGNs) in semi-intact cochlea preparation; test: Loose-patch recordings of spontaneous action potentials in semi-intact cochlea preparation; assay type: cell-based, Wistar rats; conditions: 100 μM bath application, within two minutes, two experiments
Experimental: For this preparation postnatal day (P) 10-14 Wistar rats were used. First steps of the protocol were similar to the cell culture one until the cochlea was freed from the cochlear bone. Cochlear turns (apical and middle) were dissected and isolated in sterile-filtered L-15 (Leibovitz) Medium. Explants were plated upside down (spiral ganglion neurons on top) on 10 μl of growth factor-reduced Matrigel (BD biosciences) and laminin (10 μg/ml)-coated glass coverslips. These preparations were first incubated for 30 min at 37° C. in a 95%/5% 02/CO2 atmosphere and then cultured for 2 to 5 days in vitro in (50%) F12/(50%) DMEM (Invitrogen) supplemented with (2%) N2 nutrient (Fisher Scientific). […]
All experiments were performed using an Axopatch 200B amplifier. […] Data were stored with PClamp10.2 software (Axon Instruments; Molecular Devices Corp., USA) and were analyzed off-line using Clampfit 10.2 (Molecular Devices) and Origin 8 (OriginLab) softwares.
The recording solution contained (in mM): NaCl 135, HEPES 10, glucose 10, MgCl2 1, KCl 5, and CaCl2 2.5, (pH 7.35). […] For these solutions a minor 3.7 mV liquid junction potential could be measured but membrane voltages were not corrected for it. […]
In these semi-intact cochlea preparations, spontaneous discharges of action potential were directly recorded. […] In vitro results were expressed as means±S.E.M. […]

[4] = target: T1, human H3 receptor (Homo sapiens, UniProt Q9Y5N1); conditions: radioligand binding; cited from earlier work
T1 construct: expressed in transfected cells; host or cells: SK-N-MC or HEK293 T
T1 sequence (Q9Y5N1 whole entry): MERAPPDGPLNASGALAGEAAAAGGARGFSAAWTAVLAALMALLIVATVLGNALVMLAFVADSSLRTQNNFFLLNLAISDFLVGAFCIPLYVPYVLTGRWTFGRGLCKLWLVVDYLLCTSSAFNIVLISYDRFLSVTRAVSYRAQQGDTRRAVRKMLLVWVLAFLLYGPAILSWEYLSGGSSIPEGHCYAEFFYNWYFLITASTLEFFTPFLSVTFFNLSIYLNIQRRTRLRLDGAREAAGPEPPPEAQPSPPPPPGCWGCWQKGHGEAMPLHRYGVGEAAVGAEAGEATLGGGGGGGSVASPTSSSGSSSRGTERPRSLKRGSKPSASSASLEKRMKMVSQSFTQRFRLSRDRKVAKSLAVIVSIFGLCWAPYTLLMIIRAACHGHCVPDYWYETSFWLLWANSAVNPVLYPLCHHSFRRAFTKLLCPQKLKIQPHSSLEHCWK

Compound	GPIAS values [1]	inhibition at 0.1 µM ([2]; sustained SGNs) [%]	inhibition at 100 µM ([2]; sustained SGNs) [%]	resting membrane potential, difference versus control ([2]; sustained SGNs) [mV]	amplitude of the first spike [2] [mV]	frequency of spikes and amplitude of the first spike [2]	spontaneous (synaptically driven) action potential discharge [3]	resting membrane potential, increase versus control ([2]; sustained SGNs, high concentration (100 μM)) [mV]	Kd [4] [nM]
CN1CCN(C(=O)c2cc3cc(Cl)ccc3[nH]2)CC1 [JNJ7777120, 1-[(5-chloro-1H-indol-2-yl)carbonyl]-4-methylpiperazine]	Increase	21.6 ± 1.7	69 ± 8	0.55±0.2	73.3±6.1	unaffected	–	–	–
CN1CCN(C(=O)c2nc3cc(Cl)ccc3[nH]2)CC1 [JNJ10191584, 1-[(5-chloro-1H-benzimidazol-2-yl)carbonyl]-4-methylpiperazine]	Increase	25.2 ± 2	46.2 ± 12	−0.13±0.4	83.7±5.2	unaffected	fully abolished	1.5±1	–
CNCCc1cnc[nH]1 [[^3H]N-a-methyl histamine]	–	–	–	–	–	–	–	–	1
